Converted amounts (≈) assume the structure as drawn. Read-outs that look alike come from different tables or passages of the source.
Legend:
Format in all cases: cell-based
[1] = system: STAPHYLOCOCCUS AUREUS ATCC 6538P; test: In vitro antibacterial activity, MIC, BHI agar dilution; conditions: S. aureus ATCC 6538P, 35-37° C., 20 to 24 hours
[2] = system: ESCHERICHIA COLI DC-2; test: as above
[3] = system: STREPTOCOCCUS PYOGENES 930; test: as above
[4] = system: STREPTOCOCCUS PYOGENES EES61; test: as above; conditions: S. pyogenes EES61, unit assumed
[5] = system: PSEUDOMONAS AERUGINOSA K799/61; test: as above
[6] = system: ESCHERICHIA COLI SS; test: as above; conditions: E. coli SS, unit assumed
[7] = system: ENTEROBACTER AEROGENES ATCC 13048; test: as above
[8] = system: PSEUDOMONAS AERUGINOSA K799/WT; test: as above; conditions: P. aeruginosa K799/WT
[9] = system: STAPHYLOCOCCUS AUREUS NCTC10649M; test: as above; conditions: S. aureus NCTC10649M
[10] = system: PSEUDOMONAS AERUGINOSA BMH10; test: as above
[11] = system: STR[…] 508; test: as above
Description: (§1) Representative compounds of the present invention were assayed in vitro for antibacterial activity as follows: Twelve petri dishes containing successive aqueous dilutions of the test compound mixed with 10 mL of sterilized Brain Heart Infusion (BHI) agar (Difco 0418-01-5) were prepared. Each plate was inoculated with 1:100 (or 1:10 for slow-growing strains, such as Micrococcus and Streptococcus) dilutions of up to 32 different microorganisms, using a Steers replicator block. The inoculated plates were incubated at 35-37° C. for 20 to 24 hours. In addition, a control plate, using BHI agar containing no test compound, was prepared and incubated at the beginning and end of each test.
(§2) An additional plate containing a compound having known susceptibility patterns for the organisms being tested and belonging to the same antibiotic class as the test compound was also prepared and incubated as a further control, as well as to provide test-to-test comparability. Erythromycin A was used for this purpose.
(§3) After incubation, each plate was visually inspected. The minimum inhibitory concentration (MIC) was defmed as the lowest concentration of drug yielding no growth, a slight haze, or sparsely isolated colonies on the inoculum spot as compared to the growth control.

[12] = system: M[…] ATCC 4698; test: as above; conditions: M. luteus ATCC 4698, unit assumed
Description: as §1, §2, §3

[13] = system: EN[…] ATCC 8043; test: as above
Description: as §1, §2, §3

[14] = system: M[…] ATCC 9341; test: as above
Description: as §1, §2, §3

[15] = system: STREPTOCOCCUS PYOGENES PIU 2548; test: as above; conditions: S. pyogenes PIU 2548, unit assumed
[16] = system: STAPHYLOCOCCUS AUREUS A5177; test: as above
[17] = system: ESCHERICHIA COLI H560; test: as above
[18] = system: STAPHYLOCOCCUS EPIDERMIDIS 3519; conditions: S. epidermidis 3519; BHI agar; unit assumed
[19] = system: STAPHYLOCOCCUS AUREUS CMX 553; test: In vitro antibacterial activity, MIC, BHI agar dilution
[20] = system: ESCHERICHIA COLI JUHL; conditions: E. coli JUHL; BHI agar; listed as Ex 39; unit assumed
[21] = system: PSEUDOMONAS AERUGINOSA 5007; test: In vitro antibacterial activity, MIC, BHI agar dilution
[22] = system: PSEUDOMONAS CEPACIA 296I; test: as above; conditions: P. cepacia 296I
[23] = system: MYCOBACTERIUM SMEGMATIS ATCC 114; test: as above; conditions: M. smegmatis ATCC 114, unit assumed
[24] = system: ESCHERICHIA COLI KNK 437; conditions: E. coli KNK 437, BHI agar, unit assumed
[25] = system: STREPTOCOCCUS BOVIS A-5169; test: In vitro antibacterial activity, MIC, BHI agar dilution
[26] = system: STAPHYLOCOCCUS AUREUS CMX 642A; test: as above; conditions: S. aureus CMX 642A, unit assumed
[27] = system: PROVIDENCIA STUARTII CMX 640; conditions: P. stuartii CMX 640; BHI agar; unit assumed
[28] = system: PSEUDOMONAS AERUGINOSA DPHD-5263; test: In vitro antibacterial activity, MIC, BHI agar dilution; conditions: P. aeruginosa DPHD-5263, unit assumed
[29] = system: KLEBSIELLA PNEUMONIAE ATCC 8045; test: as above
[30] = system: STAPHYLOCOCCUS AUREUS A-5278; test: as above; conditions: S. aureus A-5278, unit assumed
[31] = system: CANDIDA ALBICANS CCH 442; test: as above
[32] = system: STAPHYLOCOCCUS AUREUS 1775; test: as above; conditions: S. aureus 1775, unit assumed
[33] = system: PSEUDOMONAS AERUGINOSA DPHD-2862; test: as above; conditions: P. aeruginosa DPHD-2862, unit assumed
[34] = S. aureus CMX 553, unit assumed
[35] = P. aeruginosa K799/61, unit assumed
[36] = S. agalactiae CMX 508, unit assumed

CCC1OC(=O)C(C)C(=O)C(C)C(OC2OC(C)CC(N(C)C)C2O)C(C)(OC)CC(C)C2=NCC(CCc3ccccc3)N3C(=O)OC1(C)C3C2C (stereo not shown) [Example 39]
MIC ([1]; unit assumed): 0.78 µg/mL (≈ 1.05 µM) | MIC ([2]; E. coli DC-2, unit assumed): 100 µg/mL (≈ 135 µM) | MIC ([3]; S. pyogenes 930, listed as Ex 39, unit assumed): 100 µg/mL (≈ 135 µM) | MIC [4]: 0.01 µg/mL (≈ 0.0135 µM) | MIC ([5]; P. aeruginosa K799/61, listed as Ex 39, unit assumed): 1.56 µg/mL (≈ 2.1 µM) | MIC [6]: 0.39 µg/mL (≈ 0.526 µM) | MIC ([7]; E. aerogenes ATCC 13048, listed as Ex 39, unit assumed): > 100 µg/mL | MIC ([8]; listed as Ex 39, unit assumed): 100 µg/mL (≈ 135 µM) | MIC ([9]; listed as Ex 39, unit assumed): 0.39 µg/mL (≈ 0.526 µM) | MIC ([10]; P. aeruginosa BMH10, listed as Ex 39, unit assumed): 50 µg/mL (≈ 67.4 µM) | MIC ([11]; S. agalactiae CMX 508, listed as Ex 39, unit assumed): 0.05 µg/mL (≈ 0.0674 µM) | MIC [12]: 0.2 µg/mL (≈ 0.27 µM) | MIC ([13]; E. faecium ATCC 8043, listed as Ex 39, unit assumed): 0.1 µg/mL (≈ 0.135 µM) | MIC ([14]; M. luteus ATCC 9341, listed as Ex 39, unit assumed): 0.1 µg/mL (≈ 0.135 µM) | MIC [15]: 0.2 µg/mL (≈ 0.27 µM) | MIC ([16]; S. aureus A5177, unit assumed): 0.39 µg/mL (≈ 0.526 µM) | MIC ([17]; E. coli H560, listed as Ex 39, unit assumed): 25 µg/mL (≈ 33.7 µM) | MIC [18]: 0.78 µg/mL (≈ 1.05 µM) | MIC [19, 34]: 0.39 µg/mL (≈ 0.526 µM) | MIC [20]: 100 µg/mL (≈ 135 µM)

CC[C@H]1OC(=O)[C@H](C)C(=O)[C@H](C)[C@@H](O[C@@H]2O[C@H](C)C[C@H](N(C)C)[C@H]2O)[C@](C)(OC)C[C@@H](C)C2=NC[C@H](COCc3ccc(OC)cc3)N3C(=O)O[C@@]1(C)[C@H]3[C@H]2C [Example 62]
MIC ([1]; unit assumed): 0.2 µg/mL (≈ 0.254 µM) | MIC ([21]; P. aeruginosa 5007, unit assumed): 100 µg/mL (≈ 127 µM) | MIC ([22]; unit assumed): 12.5 µg/mL (≈ 15.9 µM) | MIC [23]: 0.1 µg/mL (≈ 0.127 µM) | MIC [24]: 100 µg/mL (≈ 127 µM) | MIC ([2]; E. coli DC-2, unit assumed): 50 µg/mL (≈ 63.5 µM) | MIC ([25]; S. bovis A-5169, unit assumed): 0.1 µg/mL (≈ 0.127 µM) | MIC ([3]; S. pyogenes 930, unit assumed): > 100 µg/mL | MIC [26]: 0.2 µg/mL (≈ 0.254 µM) | MIC [4]: 0.1 µg/mL (≈ 0.127 µM) | MIC [27]: > 100 µg/mL | MIC [5, 35]: 0.2 µg/mL (≈ 0.254 µM) | MIC [6]: 0.2 µg/mL (≈ 0.254 µM) | MIC ([7]; E. aerogenes ATCC 13048, unit assumed): 25 µg/mL (≈ 31.7 µM) | MIC ([8]; unit assumed): 25 µg/mL (≈ 31.7 µM) | MIC ([9]; unit assumed): 0.2 µg/mL (≈ 0.254 µM) | MIC ([10]; P. aeruginosa BMH10, unit assumed): 100 µg/mL (≈ 127 µM) | MIC [11, 36]: 0.1 µg/mL (≈ 0.127 µM) | MIC [12]: 0.02 µg/mL (≈ 0.0254 µM) | MIC ([13]; E. faecium ATCC 8043, unit assumed): 0.1 µg/mL (≈ 0.127 µM) | MIC ([14]; M. luteus ATCC 9341, unit assumed): 0.01 µg/mL (≈ 0.0127 µM) | MIC [28]: 50 µg/mL (≈ 63.5 µM) | MIC [15]: 0.2 µg/mL (≈ 0.254 µM) | MIC ([16]; S. aureus A5177, unit assumed): 0.2 µg/mL (≈ 0.254 µM) | MIC ([29]; K. pneumoniae ATCC 8045, unit assumed): 25 µg/mL (≈ 31.7 µM) | MIC ([17]; E. coli H560, unit assumed): 100 µg/mL (≈ 127 µM) | MIC [30]: > 100 µg/mL | MIC [18]: 0.2 µg/mL (≈ 0.254 µM) | MIC ([31]; C. albicans CCH 442, unit assumed): > 100 µg/mL | MIC [32]: > 100 µg/mL | MIC [33]: 100 µg/mL (≈ 127 µM) | MIC [19, 34]: 0.2 µg/mL (≈ 0.254 µM)

CC[C@H]1OC(=O)[C@H](C)C(=O)[C@H](C)[C@@H](O[C@@H]2O[C@H](C)C[C@H](N(C)C)[C@H]2O)[C@](C)(OC)C[C@@H](C)C2=NC3CN(CCCc4ccccc4)CC3N3C(=O)O[C@@]1(C)[C@H]3[C@H]2C (stereo partly shown) [Example 112]
MIC ([1]; listed as Ex 112, unit assumed): 0.39 µg/mL (≈ 0.489 µM) | MIC ([21]; P. aeruginosa 5007, listed as Ex 112, unit assumed): > 100 µg/mL | MIC ([22]; listed as Ex 112, unit assumed): 100 µg/mL (≈ 125 µM) | MIC [23]: 0.39 µg/mL (≈ 0.489 µM) | MIC ([24]; listed as Ex 112): 100 µg/mL (≈ 125 µM) | MIC ([2]; E. coli DC-2, listed as Ex 112, unit assumed): > 100 µg/mL | MIC ([25]; S. bovis A-5169, listed as Ex 112, unit assumed): ≤ 0.005 µg/mL | MIC ([3]; S. pyogenes 930, listed as Ex 112, unit assumed): > 100 µg/mL | MIC [26]: 0.78 µg/mL (≈ 0.979 µM) | MIC [5, 35]: 0.78 µg/mL (≈ 0.979 µM) | MIC ([7]; E. aerogenes ATCC 13048, listed as Ex 112, unit assumed): 100 µg/mL (≈ 125 µM) | MIC ([8]; listed as Ex 112, unit assumed): > 100 µg/mL | MIC ([9]; listed as Ex 112, unit assumed): 0.78 µg/mL (≈ 0.979 µM) | MIC ([10]; P. aeruginosa BMH10, listed as Ex 112, unit assumed): 100 µg/mL (≈ 125 µM) | MIC [11, 36]: 0.02 µg/mL (≈ 0.0251 µM) | MIC [12]: 0.2 µg/mL (≈ 0.251 µM) | MIC ([14]; M. luteus ATCC 9341, listed as Ex 112, unit assumed): 0.1 µg/mL (≈ 0.125 µM) | MIC [15]: 0.2 µg/mL (≈ 0.251 µM) | MIC ([16]; S. aureus A5177, listed as Ex 112, unit assumed): 0.39 µg/mL (≈ 0.489 µM) | MIC ([29]; K. pneumoniae ATCC 8045, listed as Ex 112, unit assumed): 100 µg/mL (≈ 125 µM) | MIC ([17]; E. coli H560, unit assumed): 50 µg/mL (≈ 62.7 µM) | MIC [18]: 0.78 µg/mL (≈ 0.979 µM) | MIC ([31]; C. albicans CCH 442, listed as Ex 112, unit assumed): 100 µg/mL (≈ 125 µM) | MIC ([19]; S. aureus CMX 553, listed as Ex 112, unit assumed): 0.78 µg/mL (≈ 0.979 µM)
